In ChEMBL document CHEMBL1201862, “PubChem BioAssay data set” (2004):
Calls of active or inactive are those of the source.

What was measured:
Assay type in all cases: functional
[1] = molecular target: Tyrosine-protein kinase Lck (Homo sapiens, UniProt P06239);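 also: lck was assayed as one member of a kinase panel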
[2] = molecular target: Serine/threonine-protein kinase Nek4 (Homo sapiens, UniProt P51957)
[3] = molecular target: Death-associated protein kinase 3 (Homo sapiens, UniProt O43293);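 also: measured as one member of a kinome-wide profiling panel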
[4] = molecular target: Casein kinase I isoform delta (Homo sapiens, UniProt P48730);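 also: measured as one member (CSNK1D) of a kinome panel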
Aurora kinase B = Aurora kinase B (Homo sapiens, UniProt Q96GD4)
[5] = molecular target: Serine/threonine-protein kinase pim-1 (Homo sapiens, UniProt P11309)

Measured: Ki

Chain of Serine/threonine-protein kinase pim-1 (P11309 whole entry): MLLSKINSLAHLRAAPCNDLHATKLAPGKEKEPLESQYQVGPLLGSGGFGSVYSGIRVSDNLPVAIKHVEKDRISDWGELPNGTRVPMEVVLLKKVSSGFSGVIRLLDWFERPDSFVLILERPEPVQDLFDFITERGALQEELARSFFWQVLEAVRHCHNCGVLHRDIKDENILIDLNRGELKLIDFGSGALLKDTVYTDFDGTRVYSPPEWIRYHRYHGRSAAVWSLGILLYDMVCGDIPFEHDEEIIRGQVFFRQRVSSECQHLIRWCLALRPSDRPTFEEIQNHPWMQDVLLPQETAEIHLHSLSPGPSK
Chain of Casein kinase I isoform delta (P48730 whole entry, canonical isoform): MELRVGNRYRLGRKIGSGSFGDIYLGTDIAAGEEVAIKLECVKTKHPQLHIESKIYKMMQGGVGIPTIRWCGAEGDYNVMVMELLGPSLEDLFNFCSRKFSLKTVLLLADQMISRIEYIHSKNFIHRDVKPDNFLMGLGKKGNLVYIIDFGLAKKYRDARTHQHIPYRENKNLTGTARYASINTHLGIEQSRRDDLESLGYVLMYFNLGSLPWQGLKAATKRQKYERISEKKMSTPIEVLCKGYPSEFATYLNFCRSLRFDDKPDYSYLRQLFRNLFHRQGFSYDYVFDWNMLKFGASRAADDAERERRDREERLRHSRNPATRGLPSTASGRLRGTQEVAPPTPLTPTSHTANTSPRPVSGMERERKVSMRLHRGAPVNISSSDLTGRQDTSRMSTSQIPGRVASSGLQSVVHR
Chain of Tyrosine-protein kinase Lck (P06239 whole entry): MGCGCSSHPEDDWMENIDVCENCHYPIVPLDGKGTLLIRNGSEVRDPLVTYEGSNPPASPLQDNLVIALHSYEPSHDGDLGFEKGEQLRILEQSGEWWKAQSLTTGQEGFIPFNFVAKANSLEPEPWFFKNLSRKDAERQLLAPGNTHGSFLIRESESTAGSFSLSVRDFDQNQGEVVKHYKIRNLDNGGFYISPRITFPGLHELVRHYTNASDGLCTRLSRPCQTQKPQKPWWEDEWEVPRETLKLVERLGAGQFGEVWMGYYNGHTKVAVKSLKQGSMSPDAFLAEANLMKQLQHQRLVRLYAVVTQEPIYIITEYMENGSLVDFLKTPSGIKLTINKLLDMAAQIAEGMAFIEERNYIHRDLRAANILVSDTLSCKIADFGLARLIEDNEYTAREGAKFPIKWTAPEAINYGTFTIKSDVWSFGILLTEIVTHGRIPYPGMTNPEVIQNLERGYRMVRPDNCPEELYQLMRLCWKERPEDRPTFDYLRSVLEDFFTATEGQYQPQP
Chain of Aurora kinase B (Q96GD4 whole entry): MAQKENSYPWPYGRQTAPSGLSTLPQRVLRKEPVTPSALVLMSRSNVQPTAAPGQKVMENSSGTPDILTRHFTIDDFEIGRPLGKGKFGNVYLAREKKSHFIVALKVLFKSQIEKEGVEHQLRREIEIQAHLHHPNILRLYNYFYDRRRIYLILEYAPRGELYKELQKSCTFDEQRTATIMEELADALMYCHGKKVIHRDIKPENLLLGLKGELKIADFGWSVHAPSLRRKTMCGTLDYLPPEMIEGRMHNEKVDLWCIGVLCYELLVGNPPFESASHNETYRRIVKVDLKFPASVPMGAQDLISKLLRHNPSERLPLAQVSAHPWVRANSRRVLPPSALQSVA
Chain of Serine/threonine-protein kinase Nek4 (P51957 whole entry): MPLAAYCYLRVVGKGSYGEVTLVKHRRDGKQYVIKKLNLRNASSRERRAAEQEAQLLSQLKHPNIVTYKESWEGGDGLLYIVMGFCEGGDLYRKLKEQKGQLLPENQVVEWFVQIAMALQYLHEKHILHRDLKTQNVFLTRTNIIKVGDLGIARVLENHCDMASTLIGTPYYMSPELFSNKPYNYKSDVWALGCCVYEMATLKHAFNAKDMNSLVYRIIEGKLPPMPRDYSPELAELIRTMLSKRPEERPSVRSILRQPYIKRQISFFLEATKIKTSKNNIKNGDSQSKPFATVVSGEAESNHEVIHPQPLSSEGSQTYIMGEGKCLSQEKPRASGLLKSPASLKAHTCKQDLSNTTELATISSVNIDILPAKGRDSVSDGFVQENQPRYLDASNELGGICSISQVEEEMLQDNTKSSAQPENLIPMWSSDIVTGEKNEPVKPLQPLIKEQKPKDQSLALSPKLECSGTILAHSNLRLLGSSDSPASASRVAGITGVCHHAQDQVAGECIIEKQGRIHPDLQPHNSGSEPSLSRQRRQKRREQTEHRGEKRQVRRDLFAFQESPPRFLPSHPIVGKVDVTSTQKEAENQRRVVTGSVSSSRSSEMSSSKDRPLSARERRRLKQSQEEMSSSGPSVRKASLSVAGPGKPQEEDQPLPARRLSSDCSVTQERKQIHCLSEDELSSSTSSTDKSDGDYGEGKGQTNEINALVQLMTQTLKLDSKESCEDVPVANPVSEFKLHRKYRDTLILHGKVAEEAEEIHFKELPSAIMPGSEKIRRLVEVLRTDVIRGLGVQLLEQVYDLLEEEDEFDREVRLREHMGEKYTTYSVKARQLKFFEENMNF
Chain of Death-associated protein kinase 3 (O43293 whole entry, canonical isoform): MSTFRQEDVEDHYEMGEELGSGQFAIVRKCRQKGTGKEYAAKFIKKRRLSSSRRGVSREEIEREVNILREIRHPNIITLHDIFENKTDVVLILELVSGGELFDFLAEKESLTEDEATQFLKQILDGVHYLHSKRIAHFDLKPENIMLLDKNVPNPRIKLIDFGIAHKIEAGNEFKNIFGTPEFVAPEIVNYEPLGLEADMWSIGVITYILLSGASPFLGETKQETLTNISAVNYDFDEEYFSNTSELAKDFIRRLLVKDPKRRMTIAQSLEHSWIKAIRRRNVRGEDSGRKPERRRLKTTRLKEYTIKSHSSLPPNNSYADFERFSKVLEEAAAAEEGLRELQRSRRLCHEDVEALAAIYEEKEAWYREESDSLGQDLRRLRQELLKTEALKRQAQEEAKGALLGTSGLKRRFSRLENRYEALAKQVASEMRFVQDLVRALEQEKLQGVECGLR

Oc1c2ccccc2c2c3c(cccc13)N=N2 [SP-600125]
active: [1] 2000 nM | [2] 1000 nM | [3] 398 nM | [4] 31.6 nM | Aurora kinase B 10 nM | [5] 501 nM
